Experimental findings from patent US20150044717A1, “DEVICES AND METHODS FOR OBSERVING EUKARYOTIC CELLS WITHOUT CELL WALL” (CENTRE NATIONAL DE LA RECHERCHE SCIENTIFIQUE, priority 2012, published 2015) are described below.

This assay has as its system cytokinetic ring of HeLa cells. In words: closure of the cytokinetic ring of cells in egg cups after addition of drugs (fluorescence microscopy). The assay is classed as cell-based, human. The conditions noted are these: for ring diameter as a function of time / closing speed: after addition of latrunculin A 1.5 μM. The protocol:
For the experiments, a human HeLa cell line was used. The cells were stably transfected with a plasmid coding for actin monomers tagged with GFP. Cells were cultured in a growth medium containing DMEM with 10% FCS and 2 mM of L-Glutamine. After replating cells, Geneticin (0.5 mg/ml) was added to the medium.
During the experiments, cells were cultured in L-15 with 10% FCS and 2 mM of L-Glutamine.
Synchronized cells were obtained by mitotic shake-off. To have a sufficient number of dividing cells, cells were cultured in flasks of 75 cm^2 surface. The flasks were tapped on a solid surface to detach loosely attached cells, which rounded up before undergoing division. Alternatively, cells were synchronized with classical protocols such as the thymidine block, mitotic block (both Whitfield M L, Mol. Cell. Biol. 2000, 20(12): 4188-4198) or monastrol incubation (Straight A F et al., Science. 2003, 299:1743-1747).
The coverslips with the egg cups were exposed to nitrogen plasma for 30 s and then incubated with a solution of fibronectin (20 μg/ml in phosphate buffered saline (PBS), Sigma Aldrich) for 1 h. The sample could be stored in PBS for some hours. A cylindrically shaped plastic piece was placed in a 50 ml tube. The tube was filled with 6.5 ml of growth medium. The egg cup coverslip was horizontally placed in a tube, supported by the plastic cylinder. The suspension of synchronized cells was added on top of the coverslip. The tube was centrifuged for 5 min at 4000 rpm. The coverslip was carefully removed from the tube and installed in a home-made metallic holder. L-15 medium with 10% FCS and 2 mM L-Glutamine was immediately added. During the experiment the holder was closed by a plastic cover to prevent evaporation.
The drugs were added immediately before the experiment. The inventors used a concentration of 1.5 μM latrunculin A (Sigma Aldrich) (Delanoc-Ayari H. et al., Phys. Rev. Lett. 2004, 93(10): 108102) and 100 μM (−)-blebbistatin (Sigma Aldrich) (Straight A F et al., Science. 2003, 299:1743-1747).
The objective was a Plan Apo 60× objective (oil, 1.40 NA, Nikon). The images were captured and processed with the NIS Elements software (v3.10, SP3, Nikon).

The mark [1] stands for this setting: blebbistatin 100 μM, HeLa cells in egg cups.

Consider `Cc1ccc2c(c1)C(=O)C1(O)CCN(c3ccccc3)C1=N2` (single isomer, unassigned; (-)) [Blebbistatin, (−)-blebbistatin], for which, under setting [1], the “cell division (ring diameter as a function of time)” value was “slows down and stops the division”; the “closure of the cytokinetic ring” value is “the closure was slowed down and failed”.

As to `C/C1=C/C(=O)O[C@@H]2C[C@@H](CC[C@H](C)/C=C\C=C\CC1)O[C@@](O)([C@@H]1CSC(=O)N1)C2` [Latrunculin A, latrunculin A], the “ring diameter as a function of time / closing speed” value is recorded as “a slight increase in closing speed, then a slight expansion of the ring” (HeLa cells in egg cups) and “the speed is first slightly increasing, then the ring becomes larger again until the signal vanishes” (HeLa cells in egg cups, listed as latrunculin A). The cell division entry (in the presence of latrunculin A 1.5 μM, HeLa cells in egg cups) is “Cells did not divide”. Further, the “closure of the cytokinetic ring” value (latrunculin A 1.5 μM, HeLa cells with GFP-actin in egg cups) is “the ring does not close completely”.
